{"source": "patent US20250114582A1", "about": "“METHOD FOR EFFICIENT DRUG ADMINISTRATION ACROSS THE BLOOD-BRAIN BARRIER AND USES THEREOF” (Carthera, priority 2023, published 2025)", "key": {"[1]": {"settings": "plasma kinetics used for the model; cited from earlier work"}, "[2]": {"system": "recurrent Glioblastoma Multiforme (GBM)", "test": "contrast enhancing tumor progression assessment on MRI in the clinical trial", "format": "in vivo, human", "settings": "for tumor growth rate (median): hyperintense T1w volume in region targeted by the implant", "experimental": "To evaluate the local effect of the treatment, an analysis was performed using the monthly pre-ultrasound and end-of-study MR images. The T1w contrast-enhancing tumor-related region segmented with a semi-automatic method (ITK Snap) (Yushkevich et al. 2006, Neuroimage 31:1116-1128). The total volume of this hyperintense region was evaluated at each treatment cycle in the whole brain, and in the region targeted by the implant, considering nine […] cylinders in front of the emitters. This region corresponded to 10×75 mm cylinders with an additional diffusion margin of 5 mm (Goldwirt et al., 2016, Cancer Chemother. Pharmacol. 77:211-216).\nTo further evaluate tumor progression likelihood as a function of distance to the region targeted by the emitters, the difference of this hyperintense volume between the last MRI and the first cycle was used as a progression mask. The distribution of the volume of this progression mask relative to the distance to the axes of the nine emitters was computed."}, "[3]": {"system": "recurrent Glioblastoma Multiforme (GBM)", "test": "phase 1/2a clinical trial: carboplatin with LIPU/microbubble BBB opening (SonoCloud-9), clinical outcomes", "format": "in vivo, human", "experimental": "A prospective, open-label, multi-center, single-arm, dose escalation, phase 1/2a clinical trial was conducted enrolling recurrent Glioblastoma Multiforme (“GBM”) patients at four clinical sites in France and two sites in the United States. All patients provided written informed consent in accordance with institutional guidelines. Approval was obtained from the ANSM (French National Health Agency) and from the US FDA (Food and Drug Administration). The study was conducted in accordance with good clinical practices. The study began in February 2019 and follow-up was completed in November 2022.\nThe trial was designed to evaluate the safety and efficacy of transient disruption of the blood-brain barrier by low intensity pulsed ultrasound (“LIPU”) with an implantable ultrasound device, i.e., the SonoCloud-9 implantable device (“SC9”; Carthera, Lyon, France). The trial first evaluated the Dose Limiting Toxicity (“DLT”) of escalating numbers of ultrasound beams (3, 6, and 9 beams) at constant acoustic pressure (1.03 MPa) using a 3+3 dose escalation design (cohorts A, B and C) and then confirmed the safety and efficacy of BBB opening in two expansion cohorts (cohorts C & D).\n(§1) The secondary endpoints included the frequency and severity of adverse events (incidence of adverse events summarized by system organ class and/or preferred term and severity) based on the CTCAE, version 5.0, the time to and localization of recurrence(s) on magnetic resonance imaging, feasibility of the procedure considering the time required for the sonication (from beginning of needle connection to the end of ultrasound emission and needle extraction) at the first 3 sonications of each patient, and the total time for SonoCloud 9 positioning using the SonoCloud 9 template. Six-month progression-free survival (6m-PFS), median progression-free survival (mPFS), and 1-year overall survival (1y-OS) and median OS (mOS) were also evaluated. In this trial, time to progression or to death was calculated from time of surgery/device implantation to time of events.\nThe SC9 device contains no internal energy source and is activated on demand by connecting the device to an external generator using a transdermal needle, as shown in FIG. 7A. Each sonication step consists of the generation of sequential pulses from each emitter (1 MHz, 25 ms pulse, 0.5 Hz, 270 seconds) in combination with the IV administration of the ultrasound resonator (microbubbles [MB], Definity®/Luminity® 10 μL/kg, Lantheus, N. Billerica, MA). The ultrasound resonator is injected as a 30-second bolus at the start of the ultrasound sonication procedure. Sonication was performed prior (within 60 minutes) to the carboplatin chemotherapy at cycles 1, 2 and 3 and no more than 30 minutes before the start of carboplatin therapy for the following cycles, for cohorts A, B, and C. For cohort D, the sonication was performed immediately after the completion of the carboplatin infusion. After completion of the six sonication cycles specified in the protocol or in the case of progression/premature discontinuation of the trial and prior to the end of study visit, the removal of the device could be performed unless considered as contra-indicated by the investigator or refused by the patient.\nStandard carboplatin chemotherapy using any FDA/ANSM-approved, therapeutically equivalent carboplatin injectable drug product, with a target AUC of 4-6 mg/ml*min (AUC as per local practice and investigators judgement) was given according to the Calvert formula (Calvert et al., 1989, J. Clin. Oncol. 7:1748-1756). Cycles were to be repeated every 4 weeks provided the absolute neutrophil count had recovered to ≥1500 cells/mm^3 and the platelet count was at least 100,000 cells/mm^3. Subsequent dosages were adjusted for toxicity as needed per local practice."}, "[4]": {"test": "dose-limiting toxicity, tolerability and safety of carboplatin delivered with concomitant LIPU/MB-based BBB opening", "format": "in vivo, human", "description": "For the Phase 1 (escalation of the number of active emitters/beams), the main objective was to identify the Maximum Tolerated Dose (“MTD”) defined as the highest active-beams level at which ≤1 DLT occurred in a maximum of 6 patients by cohort. […]\nas §1\nAll patients were clinically assessed at least once a month (prior to the next cycle) and included standard laboratory blood analyses (complete blood counts, chemistry with liver and kidney function tests), and also a contrast-enhanced MRI within 2 days prior to sonication. Patients discontinued the study if tumor progression was identified according to the Response Assessment in Neuro-Oncology criteria (Wen et al., 2010, J. Clin. Oncol. 28:1963-1972). For patients continuing the study, subsequent MRI exam was to be performed immediately after LIPU/MB treatment."}, "[5]": {"settings": "cohort C, carboplatin after US (N = 15)"}, "[6]": {"settings": "cohort D, carboplatin before US (N = 12)"}, "[7]": {"settings": "cohorts C + D (N = 27), 9 emitters activated"}, "[8]": {"settings": "CTCAE Grade 3, N = 34, related to the investigational procedure"}, "[9]": {"settings": "CTCAE all grade, N = 34, related to the investigational procedure"}}, "note": "Several values for one entry are separate records, joined by “and”; a condition that tells them apart may be missing. Equal entries are not always repeated. Entries after “also recorded” stand apart in the source; their conditions may differ.", "data": [{"smiles": "N.N.O=C([O-])C1(C(=O)[O-])CCC1.[Pt+2]", "note": "[carboplatin]", "values": [{"measurement": "alpha half-life", "setting": "[1]", "result": "~1", "unit": "h"}, {"measurement": "beta half-life", "setting": "[1]", "result": "~6", "unit": "h"}, {"measurement": "tumor growth rate (median)", "setting": "[2]; cohort C (carboplatin after sonication)", "result": 2.31, "unit": "mL/month"}, {"measurement": "evolution of the T1w enhancement outside the sonication field", "setting": "[2]; cohort C vs cohort D, region targeted by the implant excluded (p=0.55)", "result": "no significant difference"}, {"measurement": "tumor growth rate (median)", "setting": "[2]; cohort D (carboplatin before sonication)", "result": 0.54, "unit": "mL/month"}, {"measurement": "in-field tumor control", "setting": "[2]; cohort D compared to cohort C", "result": "Better in-field tumor control"}, {"measurement": "local tumor progression probability (% ROI volume covered with hyperintense tumor at end of study vs distance to emitter axis)", "setting": "[2]; cohort D vs cohort C, up to 10 mm radius from emitter axes (significant up to 7.5 mm)", "result": "less likelihood; also recorded: lower"}, {"measurement": "1-yr OS", "setting": "[3]; [5]", "result": "46.7% and 47%"}, {"measurement": "9-month OS", "setting": "[3]; [5]", "result": 67, "unit": "%"}, {"measurement": "mOS", "setting": "[3]; [5]", "result": 11.8, "unit": "months"}, {"measurement": "mPFS", "setting": "[3]; [5]", "result": 2.5, "unit": "months"}, {"measurement": "1-yr OS", "setting": "[3]; [6]", "result": "58.3% and 58%"}, {"measurement": "9-month OS", "setting": "[3]; [6]", "result": 75, "unit": "%"}, {"measurement": "mOS", "setting": "[3]; [6]", "result": 14.0, "unit": "months"}, {"measurement": "mPFS", "setting": "[3]; [6]", "result": 3.1, "unit": "months"}, {"measurement": "1-yr OS", "setting": "[3]; [7]", "result": 52, "unit": "%"}, {"measurement": "9-month OS", "setting": "[3]; [7]", "result": 70, "unit": "%"}, {"measurement": "mOS", "setting": "[3]; [7]", "result": 12.4, "unit": "months"}, {"measurement": "mPFS", "setting": "[3]; [7]", "result": 2.7, "unit": "months"}, {"measurement": "General disorders and administration site conditions", "setting": "[4]; [8]", "result": "1 (3%)"}, {"measurement": "Infections and infestations", "setting": "[4]; [8]", "result": "2 (6%)"}, {"measurement": "Nervous system disorders", "setting": "[4]; [8]", "result": "3 (9%)"}, {"measurement": "Patients with Any Related TEAEs (Overall)", "setting": "[4]; [8]", "result": "12 (35%)"}, {"measurement": "Skin and subcutaneous tissue disorders", "setting": "[4]; [8]", "result": "6 (18%)"}, {"measurement": "Anxiety", "setting": "[4]; [9]", "result": "1 (3%)"}, {"measurement": "Aphasia", "setting": "[4]; [9]", "result": "4 (12%)"}, {"measurement": "Balance disorder", "setting": "[4]; [9]", "result": "1 (3%)"}, {"measurement": "Cerebrospinal fluid leakage", "setting": "[4]; [9]", "result": "2 (6%)"}, {"measurement": "Confusional state", "setting": "[4]; [9]", "result": "1 (3%)"}, {"measurement": "Depression", "setting": "[4]; [9]", "result": "1 (3%)"}, {"measurement": "Diplopia/Vision blurred", "setting": "[4]; [9]", "result": "6 (17%)"}, {"measurement": "Dizziness", "setting": "[4]; [9]", "result": "8 (24%)"}, {"measurement": "Dysarthria", "setting": "[4]; [9]", "result": "2 (6%)"}, {"measurement": "Ear and labyrinth disorders", "setting": "[4]; [9]", "result": "2 (6%)"}, {"measurement": "Fatigue/Asthenia", "setting": "[4]; [9]", "result": "6 (18%)"}, {"measurement": "General disorders and administration site conditions", "setting": "[4]; [9]", "result": "8 (24%)"}, {"measurement": "Headache", "setting": "[4]; [9]", "result": "7 (21%)"}, {"measurement": "Hypoaesthesia", "setting": "[4]; [9]", "result": "1 (3%)"}, {"measurement": "Implant site pain", "setting": "[4]; [9]", "result": "1 (3%)"}, {"measurement": "Infections and infestations", "setting": "[4]; [9]", "result": "2 (6%)"}, {"measurement": "Injury, poisoning and procedural complications", "setting": "[4]; [9]", "result": "3 (9%)"}, {"measurement": "Lacunar stroke", "setting": "[4]; [9]", "result": "1 (3%)"}, {"measurement": "Language disorder", "setting": "[4]; [9]", "result": "1 (3%)"}, {"measurement": "Meningocele acquired", "setting": "[4]; [9]", "result": "3 (9%)"}, {"measurement": "Monoparesis", "setting": "[4]; [9]", "result": "1 (3%)"}, {"measurement": "Nervous system disorders", "setting": "[4]; [9]", "result": "25 (74%)"}, {"measurement": "Pain of skin", "setting": "[4]; [9]", "result": "19 (56%)"}, {"measurement": "Paraesthesia", "setting": "[4]; [9]", "result": "3 (9%)"}, {"measurement": "Patients with Any Related TEAEs (Overall)", "setting": "[4]; [9]", "result": "33 (97%)"}, {"measurement": "Post procedural oedema", "setting": "[4]; [9]", "result": "1 (3%)"}, {"measurement": "Presyncope", "setting": "[4]; [9]", "result": "2 (6%)"}, {"measurement": "Psychiatric disorders", "setting": "[4]; [9]", "result": "2 (6%)"}, {"measurement": "Scar", "setting": "[4]; [9]", "result": "1 (3%)"}, {"measurement": "Seizure", "setting": "[4]; [9]", "result": "2 (6%)"}, {"measurement": "Skin and subcutaneous tissue disorders", "setting": "[4]; [9]", "result": "19 (56%)"}, {"measurement": "Subarachnoid haemorrhage", "setting": "[4]; [9]", "result": "1 (3%)"}, {"measurement": "Vertigo", "setting": "[4]; [9]", "result": "2 (6%)"}, {"measurement": "Wound infection/Postoperative wound infection", "setting": "[4]; [9]", "result": "2 (6%)"}, {"measurement": "grade 4 events", "setting": "[4]; CTCAE, all implanted patients", "result": "No grade 4 events"}, {"measurement": "tolerability of device implantation and repeated BBB opening procedure", "setting": "[4]; all patients", "result": "well-tolerated"}, {"measurement": "pattern of hematological and non-hematological toxicities secondary to carboplatin", "setting": "[4]; e.g. bone marrow suppression, anemia, vomiting", "result": "as expected"}, {"measurement": "Dose Limiting Toxicity (DLT)", "setting": "[4]; sonication plus carboplatin, 3, 6 and 9 beams", "result": "No DLTs"}]}, {"smiles": "CC(=O)O[C@H]1C(=O)[C@@]2(C)[C@H]([C@H](OC(=O)c3ccccc3)[C@]3(O)C[C@H](OC(=O)[C@H](O)[C@@H](NC(=O)c4ccccc4)c4ccccc4)C(C)=C1C3(C)C)[C@]1(OC(C)=O)CO[C@@H]1C[C@@H]2O", "note": "[paclitaxel]", "values": [{"measurement": "alpha half-life", "setting": "[1]", "result": "~0.5", "unit": "h"}, {"measurement": "beta half-life", "setting": "[1]", "result": "several hours"}]}]}
